Measured values as given in ChEMBL document CHEMBL1142959, “Semisynthetic approaches to laspartomycin analogues” (2007).
Converted amounts (≈) assume the structure as drawn. Positions of bridges follow the written chain, without caps; N, C: chain ends. Non-standard residues stand in square brackets, D forms with d. Residues, ends and D or L forms follow the SMILES beside them. *: point of attachment. Lauroyl = CCCCCCCCCCCC(=O)*; Pip = O=C(O)[C@@H]1CCCCN1; Dap = NC[C@H](N)C(=O)O

Assays:
Format in all cases: functional
[1] = system: Enterococcus faecalis; assay: Antimicrobial activity against vancomycin-sensitive Enterococcus faecalis ATCC 29212 by broth microdilution method
[2] = system: Enterococcus faecium; assay: Antimicrobial activity against vancomycin/multidrug-resistant Enterococcus faecium ATCC 51559 by broth microdilution method
[3] = system: Staphylococcus aureus; assay: Antimicrobial activity against methicillin-sensitive Staphylococcus aureus Smith ATCC 19636 by broth microdilution method
[4] = system: Staphylococcus aureus; assay: Antimicrobial activity against methicillin-resistant Staphylococcus aureus ATCC 43300 by broth microdilution method
[5] = system: Staphylococcus aureus; assay: Antimicrobial activity against vancomycin-intermediate Staphylococcus aureus CDC HIP 5836 by broth microdilution method
[6] = system: Staphylococcus epidermidis; assay: Antimicrobial activity against methicillin-resistant Staphylococcus epidermidis ATCC 51625 by broth microdilution method
[7] = system: Staphylococcus aureus; assay: Antimicrobial activity against methicillin-sensitive Staphylococcus aureus Smith ATCC 19636 by tube dilution method
[8] = Staphylococcus aureus, Smith, read-out: MIC

MIC [7, 8] [µg/mL]	SMILES	further results
> 64	CCCCCCCCCCCCCCCCS(=O)(=O)N[C@@H](Cc1c[nH]c2ccccc12)C(=O)N[C@H]1CNC(=O)[C@@H]2CCCN2C(=O)[C@H]([C@H](C)CC)NC(=O)[C@H]([C@@H](C)O)NC(=O)CNC(=O)[C@H](CC(=O)O)NC(=O)CNC(=O)[C@H](CC(=O)O)NC(=O)CNC(=O)[C@@H]2CCCCN2C1=O	–
16 (≈ 12.7 µM)	CCCCCCCCCCCCS(=O)(=O)N[C@@H](CC(N)=O)C(=O)N[C@H]1CNC(=O)[C@@H]2CCCN2C(=O)[C@H]([C@H](C)CC)NC(=O)[C@H]([C@@H](C)O)NC(=O)CNC(=O)[C@H](CC(=O)O)NC(=O)CNC(=O)[C@H](CC(=O)O)NC(=O)CNC(=O)[C@@H]2CCCCN2C1=O	–
2 (≈ 1.6 µM)	CC[C@@H](C)[C@@H]1NC(=O)[C@H]([C@@H](C)O)NC(=O)CNC(=O)[C@H](CC(=O)O)NC(=O)CNC(=O)[C@H](CC(=O)O)NC(=O)CNC(=O)[C@@H]2CCCCN2C(=O)[C@@H](NC(=O)[C@H](CC(=O)O)NC(=O)/C=C/CCCCCCCCCC(C)C)CNC(=O)[C@@H]2CCCN2C1=O [LASPARTOMYCIN C]	–
–	CCCCCCCCCCCCCCC(=O)N[C@@H](CC(=O)O)C(=O)N[C@H]1CNC(=O)[C@@H]2CCCN2C(=O)[C@H]([C@H](C)CC)NC(=O)[C@H]([C@@H](C)O)NC(=O)CNC(=O)[C@H](CC(=O)O)NC(=O)CNC(=O)C(CC(=O)O)NC(=O)CNC(=O)[C@@H]2CCCCN2C1=O (single isomer, unassigned)	MIC [1]: 4 µg/mL (≈ 3.2 µM); MIC [2]: 4 µg/mL (≈ 3.2 µM); MIC [3]: 4 µg/mL (≈ 3.2 µM); MIC [4]: 4 µg/mL (≈ 3.2 µM); MIC [5]: 16 µg/mL (≈ 12.8 µM); MIC [6]: 8 µg/mL (≈ 6.4 µM); MIC [7]: 2 µg/mL (≈ 1.6 µM)
16 (≈ 11.6 µM)	CCCCCCCCCCCCCCC(=O)N[C@@H](CCCCN)C(=O)N[C@@H](CC(=O)O)C(=O)N[C@H]1CNC(=O)[C@@H]2CCCN2C(=O)[C@H]([C@H](C)CC)NC(=O)[C@H]([C@@H](C)O)NC(=O)CNC(=O)[C@H](CC(=O)O)NC(=O)CNC(=O)C(CC(=O)O)NC(=O)CNC(=O)[C@@H]2CCCCN2C1=O (single isomer, unassigned)	–
2 (≈ 1.54 µM)	CCCCCCCCCCCCc1ccc(C(=O)N[C@@H](CC(=O)O)C(=O)N[C@H]2CNC(=O)[C@@H]3CCCN3C(=O)[C@H]([C@H](C)CC)NC(=O)[C@H]([C@@H](C)O)NC(=O)CNC(=O)[C@H](CC(=O)O)NC(=O)CNC(=O)C(CC(=O)O)NC(=O)CNC(=O)[C@@H]3CCCCN3C2=O)cc1 (single isomer, unassigned)	–
> 64	CCCCCCCCCCCCCCC(=O)N[C@@H](C)C(=O)N[C@@H](CC(=O)O)C(=O)N[C@H]1CNC(=O)[C@@H]2CCCN2C(=O)[C@H]([C@H](C)CC)NC(=O)[C@H]([C@@H](C)O)NC(=O)CNC(=O)[C@H](CC(=O)O)NC(=O)CNC(=O)C(CC(=O)O)NC(=O)CNC(=O)[C@@H]2CCCCN2C1=O (single isomer, unassigned)	–
2 (≈ 1.55 µM)	CCCCCCCCCCCCCCCCNC(=O)N[C@@H](CC(N)=O)C(=O)N[C@H]1CNC(=O)[C@@H]2CCCN2C(=O)[C@H]([C@H](C)CC)NC(=O)[C@H]([C@@H](C)O)NC(=O)CNC(=O)[C@H](CC(=O)O)NC(=O)CNC(=O)[C@H](CC(=O)O)NC(=O)CNC(=O)[C@@H]2CCCCN2C1=O	–
> 64	CCCCCCCCCC(=O)N[C@@H](Cc1c[nH]c2ccccc12)C(=O)N[C@@H](CC(=O)O)C(=O)N[C@H]1CNC(=O)[C@@H]2CCCN2C(=O)[C@H]([C@H](C)CC)NC(=O)[C@H]([C@@H](C)O)NC(=O)CNC(=O)[C@H](CC(=O)O)NC(=O)CNC(=O)[C@H](CC(=O)O)NC(=O)CNC(=O)[C@@H]2CCCCN2C1=O	–
> 64	CC[C@@H](C)[C@@H]1NC(=O)[C@H]([C@@H](C)O)NC(=O)CNC(=O)[C@H](CC(=O)O)NC(=O)CNC(=O)C(CC(=O)O)NC(=O)CNC(=O)[C@@H]2CCCCN2C(=O)[C@@H](NC(=O)[C@H](CC(=O)O)NC(=O)CCCCCCCCCCOc2ccccc2)CNC(=O)[C@@H]2CCCN2C1=O (single isomer, unassigned)	–
8 (≈ 6.47 µM)	CCCCCCCCCCCCOC(=O)N[C@@H](CC(N)=O)C(=O)N[C@H]1CNC(=O)[C@@H]2CCCN2C(=O)[C@H]([C@H](C)CC)NC(=O)[C@H]([C@@H](C)O)NC(=O)CNC(=O)[C@H](CC(=O)O)NC(=O)CNC(=O)[C@H](CC(=O)O)NC(=O)CNC(=O)[C@@H]2CCCCN2C1=O	–
8 (≈ 5.57 µM)	CCCCCCCCCCCCCCC(=O)N[C@@H](Cc1c[nH]c2ccccc12)C(=O)N[C@@H](CC(=O)O)C(=O)N[C@H]1CNC(=O)[C@@H]2CCCN2C(=O)[C@H]([C@H](C)CC)NC(=O)[C@H]([C@@H](C)O)NC(=O)CNC(=O)[C@H](CC(=O)O)NC(=O)CNC(=O)C(CC(=O)O)NC(=O)CNC(=O)[C@@H]2CCCCN2C1=O (single isomer, unassigned)	–
> 64	CCCCCCCCCCCCCCC(=O)N[C@@H](Cc1c[nH]c2ccccc12)C(=O)N[C@H](CC(=O)O)C(=O)N[C@H]1CNC(=O)[C@@H]2CCCN2C(=O)[C@H]([C@H](C)CC)NC(=O)[C@H]([C@@H](C)O)NC(=O)CNC(=O)[C@H](CC(=O)O)NC(=O)CNC(=O)C(CC(=O)O)NC(=O)CNC(=O)[C@@H]2CCCCN2C1=O (single isomer, unassigned)	–
–	CCCCCCCCCCCCCCC(=O)N[C@@H](CC(=O)O)C(=O)N[C@H]1CNC(=O)[C@@H]2CCCN2C(=O)[C@H]([C@H](C)CC)NC(=O)[C@H]([C@@H](C)O)NC(=O)CNC(=O)[C@H](CC(=O)O)NC(=O)CNC(=O)[C@H](CC(=O)O)NC(=O)CNC(=O)[C@@H]2CCCCN2C1=O	MIC [7]: >128 µg/mL
8 (≈ 5.74 µM)	CCCCCCCCCCCC(=O)N[C@@H](Cc1c[nH]c2ccccc12)C(=O)N[C@@H](CC(N)=O)C(=O)N[C@H]1CNC(=O)[C@@H]2CCCN2C(=O)[C@H]([C@@H](C)CC)NC(=O)[C@H]([C@@H](C)O)NC(=O)CNC(=O)[C@H](CC(=O)O)NC(=O)CNC(=O)[C@H](CC(=O)O)NC(=O)CNC(=O)[C@@H]2CCCCN2C1=O (Lauroyl-WN[Dap][Pip]GDGDGTIP; lactam 3-C)	–
> 64	CCCCCCCCCC(=O)N[C@@H](CC(=O)O)C(=O)N[C@H]1CNC(=O)[C@@H]2CCCN2C(=O)[C@H]([C@H](C)CC)NC(=O)[C@H]([C@@H](C)O)NC(=O)CNC(=O)[C@H](CC(=O)O)NC(=O)CNC(=O)C(CC(=O)O)NC(=O)CNC(=O)[C@@H]2CCCCN2C1=O (single isomer, unassigned)	–
1 (≈ 0.788 µM)	CCCCCCCCCCc1ccc(C(=O)N[C@@H](CC(=O)O)C(=O)N[C@H]2CNC(=O)[C@@H]3CCCN3C(=O)[C@H]([C@H](C)CC)NC(=O)[C@H]([C@@H](C)O)NC(=O)CNC(=O)[C@H](CC(=O)O)NC(=O)CNC(=O)C(CC(=O)O)NC(=O)CNC(=O)[C@@H]3CCCCN3C2=O)cc1 (single isomer, unassigned)	–
4 (≈ 2.67 µM)	CCCCCCCCCCCCCCCCS(=O)(=O)N[C@@H](Cc1c[nH]c2ccccc12)C(=O)N[C@@H](CC(=O)O)C(=O)N[C@H]1CNC(=O)[C@@H]2CCCN2C(=O)[C@H]([C@H](C)CC)NC(=O)[C@H]([C@@H](C)O)NC(=O)CNC(=O)[C@H](CC(=O)O)NC(=O)CNC(=O)[C@H](CC(=O)O)NC(=O)CNC(=O)[C@@H]2CCCCN2C1=O	–
> 64	CCCCCCCCCCCCCCC(=O)N[C@H]1CNC(=O)[C@@H]2CCCN2C(=O)[C@H]([C@H](C)CC)NC(=O)[C@H]([C@@H](C)O)NC(=O)CNC(=O)[C@H](CC(=O)O)NC(=O)CNC(=O)C(CC(=O)O)NC(=O)CNC(=O)[C@@H]2CCCCN2C1=O (single isomer, unassigned)	–
> 64	CCCCCCCCCCCCCCC(=O)NCC(=O)N[C@@H](CC(=O)O)C(=O)N[C@H]1CNC(=O)[C@@H]2CCCN2C(=O)[C@H]([C@H](C)CC)NC(=O)[C@H]([C@@H](C)O)NC(=O)CNC(=O)[C@H](CC(=O)O)NC(=O)CNC(=O)C(CC(=O)O)NC(=O)CNC(=O)[C@@H]2CCCCN2C1=O (single isomer, unassigned)	–
–	CCCCCCCCCCCCCCC(=O)N[C@@H](Cc1c[nH]c2ccccc12)C(=O)N[C@@H](CC(=O)O)C(=O)N[C@H]1CNC(=O)[C@@H]2CCCN2C(=O)[C@H]([C@H](C)CC)NC(=O)[C@H]([C@@H](C)O)NC(=O)CNC(=O)[C@H](CC(=O)O)NC(=O)CNC(=O)[C@H](CC(=O)O)NC(=O)CNC(=O)[C@@H]2CCCCN2C1=O	MIC [7]: 16 µg/mL (≈ 11.1 µM)
64 (≈ 50.7 µM)	CCCCCCCCCCCCCCC(=O)N[C@@H](CCC(=O)O)C(=O)N[C@H]1CNC(=O)[C@@H]2CCCN2C(=O)[C@H]([C@H](C)CC)NC(=O)[C@H]([C@@H](C)O)NC(=O)CNC(=O)[C@H](CC(=O)O)NC(=O)CNC(=O)C(CC(=O)O)NC(=O)CNC(=O)[C@@H]2CCCCN2C1=O (single isomer, unassigned)	–

SMILES	MIC [7, 8] [µg/mL]	further results
CCCCCCCCCCCCCCC(=O)N[C@@H](Cc1ccccc1)C(=O)N[C@@H](CC(=O)O)C(=O)N[C@H]1CNC(=O)[C@@H]2CCCN2C(=O)[C@H]([C@H](C)CC)NC(=O)[C@H]([C@@H](C)O)NC(=O)CNC(=O)[C@H](CC(=O)O)NC(=O)CNC(=O)C(CC(=O)O)NC(=O)CNC(=O)[C@@H]2CCCCN2C1=O (single isomer, unassigned)	4 (≈ 2.86 µM)	MIC [1]: 4 µg/mL (≈ 2.86 µM); MIC [2]: 8 µg/mL (≈ 5.73 µM); MIC [3]: 4 µg/mL (≈ 2.86 µM); MIC [4]: 4 µg/mL (≈ 2.86 µM); MIC [5]: 32 µg/mL (≈ 22.9 µM); MIC [6]: 4 µg/mL (≈ 2.86 µM)
CCCCCCCCCCCCCCNC(=O)N[C@@H](Cc1ccccc1)C(=O)N[C@@H](CC(N)=O)C(=O)N[C@H]1CNC(=O)[C@@H]2CCCN2C(=O)[C@H]([C@H](C)CC)NC(=O)[C@H]([C@@H](C)O)NC(=O)CNC(=O)[C@H](CC(=O)O)NC(=O)CNC(=O)[C@H](CC(=O)O)NC(=O)CNC(=O)[C@@H]2CCCCN2C1=O	4 (≈ 2.84 µM)	MIC [1]: 2 µg/mL (≈ 1.42 µM); MIC [2]: 8 µg/mL (≈ 5.67 µM); MIC [3]: 4 µg/mL (≈ 2.84 µM); MIC [4]: 4 µg/mL (≈ 2.84 µM); MIC [5]: 8 µg/mL (≈ 5.67 µM); MIC [6]: 4 µg/mL (≈ 2.84 µM)
CCCCCCCCCCCCCCC(=O)N[C@H](Cc1ccccc1)C(=O)N[C@@H](CC(=O)O)C(=O)N[C@H]1CNC(=O)[C@@H]2CCCN2C(=O)[C@H]([C@H](C)CC)NC(=O)[C@H]([C@@H](C)O)NC(=O)CNC(=O)[C@H](CC(=O)O)NC(=O)CNC(=O)C(CC(=O)O)NC(=O)CNC(=O)[C@@H]2CCCCN2C1=O (single isomer, unassigned)	4 (≈ 2.86 µM)	–
